Reference: article PMC6323793 (BMC Cancer, 2019)
Where two headings read alike, the source gives them in different places.

Experiments:
recombinant human Cdc25B = target: T1, recombinant human Cdc25B (Homo sapiens, UniProt P30305); test: Cdc25B fluorometric phosphatase assay (OMFP substrate); format: biochemical
T1 construct: purchased CycLex CY-1353
T1 sequence (P30305 1-580): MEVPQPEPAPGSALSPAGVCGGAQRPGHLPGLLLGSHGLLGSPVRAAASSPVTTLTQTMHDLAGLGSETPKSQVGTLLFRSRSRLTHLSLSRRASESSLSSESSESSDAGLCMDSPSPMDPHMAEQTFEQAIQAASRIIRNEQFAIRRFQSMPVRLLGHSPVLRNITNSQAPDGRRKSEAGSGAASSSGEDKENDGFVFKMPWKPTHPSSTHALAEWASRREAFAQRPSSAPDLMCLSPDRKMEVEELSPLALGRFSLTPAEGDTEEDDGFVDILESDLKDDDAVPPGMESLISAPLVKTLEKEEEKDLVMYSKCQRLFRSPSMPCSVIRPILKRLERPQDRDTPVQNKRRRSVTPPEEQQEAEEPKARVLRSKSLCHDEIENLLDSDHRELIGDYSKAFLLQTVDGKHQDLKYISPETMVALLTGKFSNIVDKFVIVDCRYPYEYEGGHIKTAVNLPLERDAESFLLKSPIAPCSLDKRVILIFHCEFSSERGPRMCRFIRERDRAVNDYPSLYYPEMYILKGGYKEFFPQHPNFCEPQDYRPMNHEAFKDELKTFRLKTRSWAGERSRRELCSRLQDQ
Procedure: Then, 25 μL of stop solution was added. Fluorescence was measured at an excitation wavelength of 485 nm and an emission wavelength of 530 nm using a fluorescence microplate reader (BioTek Instruments, Inc., Winooski, VT, USA). Menadione is a quinone-type inhibitor of Cdc25s that was used as a positive control here.

recombinant human Cdc25A = target: T2, recombinant human Cdc25A (Homo sapiens, UniProt P30304); test: Cdc25A fluorometric phosphatase assay (OMFP substrate); format: biochemical
T2 construct: purchased CycLex CY-1352
T2 sequence (P30304 1-524): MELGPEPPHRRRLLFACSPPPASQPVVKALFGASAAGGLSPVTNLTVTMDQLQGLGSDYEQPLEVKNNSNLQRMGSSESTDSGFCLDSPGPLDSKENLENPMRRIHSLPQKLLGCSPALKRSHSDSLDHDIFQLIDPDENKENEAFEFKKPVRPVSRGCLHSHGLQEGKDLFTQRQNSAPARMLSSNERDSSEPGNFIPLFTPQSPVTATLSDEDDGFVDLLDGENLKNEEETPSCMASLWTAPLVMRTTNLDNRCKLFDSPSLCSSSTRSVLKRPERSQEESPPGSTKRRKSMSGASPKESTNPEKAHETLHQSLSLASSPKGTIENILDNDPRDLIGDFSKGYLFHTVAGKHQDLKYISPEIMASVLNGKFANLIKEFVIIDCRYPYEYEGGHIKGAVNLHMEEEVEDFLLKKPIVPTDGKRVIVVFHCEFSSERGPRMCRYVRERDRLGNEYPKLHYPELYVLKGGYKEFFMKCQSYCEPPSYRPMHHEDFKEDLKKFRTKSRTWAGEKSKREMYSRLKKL
Procedure: (§1) In summary, dual-specificity phosphatase activity was measured in a 96-well microtiter plate using O-methylfluorescein phosphate (OMFP) as a substrate. 5 μL (0.1 μg/μL) of purified recombinant Cdc25s (Cdc25A, -B and -C) was mixed with 40 μL of assay mixture and incubated with 5 μL of the test compound at various concentrations in a well. Then, 25 μL of stop solution was added. […] Menadione is a quinone-type inhibitor of Cdc25s that was used as a positive control here.

recombinant human Cdc25C = target: T3, recombinant human Cdc25C (Homo sapiens, UniProt P30307); test: Cdc25C fluorometric phosphatase assay (OMFP substrate); format: biochemical
T3 construct: purchased CycLex CY-1354
T3 sequence (P30307 1-473): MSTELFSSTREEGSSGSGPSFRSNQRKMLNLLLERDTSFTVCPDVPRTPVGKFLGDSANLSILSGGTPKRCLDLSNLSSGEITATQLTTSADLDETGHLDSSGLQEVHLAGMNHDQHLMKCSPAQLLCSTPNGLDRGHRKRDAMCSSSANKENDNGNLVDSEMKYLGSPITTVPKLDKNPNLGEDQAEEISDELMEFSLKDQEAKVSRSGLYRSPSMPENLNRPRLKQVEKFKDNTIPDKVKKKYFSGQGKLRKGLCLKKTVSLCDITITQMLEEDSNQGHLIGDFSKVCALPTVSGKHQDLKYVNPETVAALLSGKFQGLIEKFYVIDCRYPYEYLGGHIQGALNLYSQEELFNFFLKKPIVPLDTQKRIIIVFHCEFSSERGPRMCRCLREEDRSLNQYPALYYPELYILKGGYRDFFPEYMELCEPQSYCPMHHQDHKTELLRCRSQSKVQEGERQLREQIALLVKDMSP
Procedure: as §1

MCF-7 cells [1] = test: MTT anti-proliferation assay, MCF-7; conditions: Homo sapiens, MCF7, 48 h, read-out: IC50 MCF-7
tsFT210 cells [2] = test: MTT anti-proliferation assay, tsFT210; conditions: Mus musculus, tsFT210, 48 h, read-out: IC50 tsFT210
HeLa cells = test: MTT anti-proliferation assay, HeLa; conditions: Homo sapiens, 48 h, read-out: IC50 HeLa
tsFT210 cells [3] = test: Cell cycle analysis by flow cytometry; format: cell-based, mouse; conditions: synchronized tsFT210 cells released at 32 °C, treated for 6 h
Procedure: Cell cycle analysis was performed as described previously. […]. The harvested cells were stained with staining buffer (50 μg/ml propidium iodide, 0.1% sodium citrate and 0.2% NP-40) and analysed by Flow Cytometry (BD Biosciences). A final concentration of 0.5% DMSO was used for all compounds and as a negative control. Nocodazole, a potent mitotic blocker that arrests cells at the G2/M phase, was used as a positive control at a concentration of 100 nM.

[4] = tested on: phosphorylated CDK1 in primary tumour tissues; test: Phosphorylated CDK1 in tumour tissue of K562-bearing mice; format: in vivo, mouse; conditions: especially the 5 and 10 mg/kg groups, vs control group
Procedure: (§2) The phosphorylation status of CDK1 was analysed by Western blotting as described in our previous work. […] The protein concentration in cell lysates was confirmed by the Bradford method. Fifty micrograms of protein per lane was resolved on 10% SDS polyacrylamide gels, and the bands were transferred to PVDF membranes (Millipore). Nonspecific reactivity was blocked by 5% non-fat milk prepared in TBST (10 mM Tris, 150 mM NaCl, 0.05% Tween-20, pH 7.5) at room temperature for 1 h. The protein signals were captured with primary antibodies and the secondary antibodies according to the manufacturers’ instructions. In this process, the protein β-actin was used to normalize target protein. All antibodies used in this paper were purchased from Cell Signaling Technology (Inc, China).
(§3) The mouse model was constructed according to our previous work. Balb/c mice (female, 5 weeks old), purchased from Shanghai SLAC Laboratory Animal Co., LTD (Shanghai, China), were subcutaneously injected into a 100 μL K562 cell suspension (5 × 10^6/mL, PBS) in the right flank of mice. […] The long and short dimensions of tumour size were measured by a digital calliper at days 1, 4, 8, 11, 16, 21, and 24 after treatment. The volume was calculated with the formula (long dimension) × (short dimension)^2/2. The mice were euthanized 2 days after the last treatment by the method of cervical dislocation.

[5] = tested on: CDK1 (tyrosine 15 phosphorylation) in tsFT210 cells; test: Western blot of CDK1 phosphorylation status in cells; format: cell-based, mouse; conditions: cells in G2/M phase, 1 μM, 5 μM and 25 μM, 4 h
Procedure: as §2

K562 cells = test: MTT anti-proliferation assay, K562; conditions: Homo sapiens, K562, 48 h, read-out: IC50 K562
tsFT210 cells [6] = test: Intracellular ROS assay (DCFH-DA) in tsFT210 cells; format: cell-based, mouse; conditions: tsFT210 cells synchronized at G2 phase, 5 μM and 25 μM, 4 h, compared with control cells
Procedure: (§4) Reactive oxygen species (ROS) were detected with the fluorescent probe 2′,7′-dichlorofluorescin diacetate (DCFH-DA) as described by others. Briefly, MCF-7 cells or tsFT210 (synchronized at G2 phase) cells were plated in 96-well plates and loaded with 20 μM DCFH-DA for 30 min at 37 °C in culture medium. […] Untreated cells were used as control. Fluorescence was measured using a fluorescence microplate reader (BioTek Instruments, excitation wavelength: 485 nm, emission wavelength: 528 nm). The ROS levels were expressed as RFU (relative fluorescence unit).

MCF-7 cells [7] = test: Intracellular ROS assay (DCFH-DA) in MCF-7 cells; format: cell-based; conditions: 5 μM and 25 μM, 4 h, compared with control cells
Procedure: as §4

K562 xenograft tumour = test: K562 xenograph tumour model in mice; format: in vivo, mouse
Procedure: as §3

[8] = recombinant human phosphatase, OMFP substrate, mean ± S.E.M., read-out: IC50 Cdc25A
[9] = recombinant human phosphatase, OMFP substrate, mean ± S.E.M., read-out: IC50 Cdc25C
[10] = recombinant human phosphatase, OMFP substrate, mean ± S.E.M., read-out: IC50 Cdc25B

Row | Structure (SMILES) | IC50 (recombinant human Cdc25B) [µM] | IC50 (recombinant human Cdc25A) [µM] | IC50 (recombinant human Cdc25C) [µM] | IC50 (recombinant human Cdc25A; [8]) [µM] | IC50 (recombinant human Cdc25C; [9]) [µM] | other results
1 | CC(=O)O[C@H](CC=C(C)C)C1=CC(=O)c2c(O)ccc(O)c2C1=O [Acetylshikonin] | 3.87 ± 0.68 | 3.92 ± 0.66 | 4.67 ± 0.34 | – | – | –
2 | CC(C)=CCCC1=CC(=O)c2c(O)ccc(O)c2C1=O [Deoxyshikonin] | 7.32 ± 0.45 | 3.22 ± 0.76 | 6.33 ± 0.65 | – | – | –
3 | COc1cccc2c1C(=O)c1c(O)c3c(c(O)c1C2=O)C[C@@](O)(C(=O)CO)C[C@@H]3O[C@H]1C[C@H](N)[C@H](O)[C@H](C)O1 [Doxorubicin, reference compound] | – | – | – | – | – | IC50 (MCF-7 cells [1]): 0.28 ± 0.03 µM; IC50 (tsFT210 cells [2]): 0.56 ± 0.14 µM; IC50 (HeLa cells): 0.43 ± 0.06 µM
4 | CC(C)=CC[C@@H](OC(=O)C(C)C)C1=CC(=O)c2c(O)ccc(O)c2C1=O [Isobutylshikonin] | – | – | – | 6.79 ± 1.02 | 5.89 ± 0.43 | –
5 | CC(C)=CCC(OC(=O)CC(C)C)C1=CC(=O)c2c(O)ccc(O)c2C1=O (centres unmarked) [Isovalerylshikonin] | – | – | – | 9.53 ± 0.78 | 11 ± 0.97 | –
6 | COC(=O)Nc1nc2ccc(C(=O)c3cccs3)cc2[nH]1 [Nocodazole, reference compound] | – | – | – | – | – | Effect on cell cycle progression (tsFT210 cells [3]): arrested the cells at the G2/M phase
7 | CC(C)=CC[C@@H](O)C1=CC(=O)c2c(O)ccc(O)c2C1=O [Shikonin] | – | 2.14 ± 0.21 | 4.78 ± 0.18 | – | – | Protein levels of phosphorylated CDK1 in primary tumour tissues [4]: significantly increased; IC50 (MCF-7 cells [1]): 6.82 ± 0.76 µM; Phosphorylation status of CDK1 (Western blot) [5]: induced an accumulation of the tyrosine 15-phosphorylated form of CDK1; IC50 (K562 cells): 6.15 ± 0.46 µM; IC50 (tsFT210 cells [2]): 8.97 ± 0.87 µM; Intracellular ROS (tsFT210 cells [6]): increased significantly; Effect on cell cycle progression (tsFT210 cells [3]): blocked at the G2/M phase in a concentration-dependent manner; Intracellular ROS (MCF-7 cells [7]): increased significantly; IC50 (HeLa cells): 9.56 ± 1.03 µM; Tumour growth (K562 xenograft tumour; K562-bearing mice, 1, 5, or 10 mg/kg every other day, 21 days, vs vehicle): concentration-dependently inhibited tumour growth; Survival (Kaplan-Meier) (K562 xenograft tumour; K562-bearing mice, 1, 5, or 10 mg/kg, vs control group): prolonged
8 | CC1=CC(=O)c2ccccc2C1=O [menadione, reference compound] | 5.37 ± 0.45 | 4.12 ± 0.87 | 5.13 ± 0.24 | – | – | –
9 | CCC(C)C(=O)O[C@H](CC=C(C)C)C1=CC(=O)c2c(O)ccc(O)c2C1=O (stereo partly drawn) [α-Methyl-η-butylshikonin] | – | – | – | 11.2 ± 1.45 | 13.5 ± 1.45 | IC50 (recombinant human Cdc25B; [10]): 14.3 ± 1.27 µM
10 | CC(C)=CCC(OC(=O)C=C(C)C)C1=CC(=O)c2c(O)ccc(O)c2C1=O (stereo not drawn) [β,β-Dimethylacrylshikonin] | – | – | – | 4.67 ± 0.85 | – | IC50 (recombinant human Cdc25B; [10]): 8.56 ± 0.67 µM
